Source: EPA's ToxRefDB 2

Experiments:
rat [1] = conditions: Developmental neurotoxicity study; other; Oral; Gavage/Intubation; dose end: 112 PND; group: cannot be grouped; systemic / in life observation / body weight / offspring (pup) weight gain
rat [2] = conditions: Prenatal developmental toxicity study, sprague dawley, Oral, Gavage/Intubation, dose end: 15 GD
dog [3] = conditions: Chronic toxicity; beagle; Oral; Feed; dose end: 12 month; group: cholinesterase; cholinesterase / cholinesterase / cholinesterase / brain cholinesterase (che) + cholinesterase / cholinesterase / cholinesterase / …
dog [4] = conditions: Chronic toxicity; beagle; Oral; Feed; dose end: 107 week; group: systemic; systemic / pathology gross / eye / [other] + systemic / pathology gross / eye / discolored + systemic / pathology microscopic / eye / [other…
dog [5] = conditions: Chronic toxicity; beagle; Oral; Feed; dose end: 104 week; group: cholinesterase; cholinesterase / cholinesterase / cholinesterase / erythrocyte cholinesterase (che) + cholinesterase / cholinesterase / cholinesterase / …
rat [6] = conditions: Combined chronic toxicity/carcinogenicity, fischer, Oral, Feed, dose end: 105 week
mouse [7] = conditions: Carcinogenicity, cd1, Oral, Feed, dose end: 108 week
mouse [8] = conditions: Subchronic oral toxicity in rodents, b6c3f1, Gavage/Intubation, dose end: 13 week, group: systemic
mouse [9] = conditions: Carcinogenicity, b6c3f1, Oral, Gavage/Intubation, dose end: 103 week, group: systemic
mouse [10] = conditions: Prenatal developmental toxicity study; cd1; Oral; Gavage/Intubation; dose end: 15 GD; group: maternal; systemic / in life observation / clinical signs / ataxia + systemic / in life observation / mortality / mortality
rat [11] = conditions: Sub-acute repeat dose toxicity, fischer, Oral, Gavage/Intubation, dose end: 16 day, group: systemic
rat [12] = conditions: Carcinogenicity; fischer; Oral; Gavage/Intubation; dose end: 103 week; group: systemic; systemic / pathology microscopic / spleen / fibrosis + systemic / pathology microscopic / stomach / dysplasia + systemic / pathology …
rat [13] = conditions: Subchronic oral toxicity in rodents, fischer, Gavage/Intubation, dose end: 13 week, group: systemic
mouse [14] = conditions: Sub-acute repeat dose toxicity, b6c3f1, Oral, Gavage/Intubation, dose end: 16 day, group: systemic
dog [15] = conditions: Chronic toxicity, beagle, Oral, Capsule, dose end: 12 month, group: systemic
rat [16] = conditions: Combined chronic toxicity/carcinogenicity; wistar; Oral; Feed; dose end: 28 month; group: systemic; systemic / in life observation / body weight / body weight + systemic / in life observation / body weight / body weight gain
rabbit = conditions: Prenatal developmental toxicity study, dutch, Oral, Gavage/Intubation, dose end: 18 GD
dog [17] = conditions: Chronic toxicity, beagle, Oral, Feed, dose end: 12 month, group: systemic
rat [18] = conditions: Subchronic oral toxicity in rodents, wistar, Feed, dose end: 3 month, group: systemic
rat [19] = conditions: Multigenerational reproductive toxicity study, sprague dawley, Oral, Feed, dose end: 2 generation
rat [20] = conditions: Prenatal developmental toxicity study, wistar, Oral, Gavage/Intubation, dose end: 16 GD
[21] = group: cholinesterase, cholinesterase / cholinesterase / cholinesterase / erythrocyte cholinesterase (che) + cholinesterase / cholinesterase / cholinesterase / …
[22] = group: developmental, developmental / developmental malformation / bone / incomplete ossification
[23] = group: cholinesterase, cholinesterase / cholinesterase / cholinesterase / brain cholinesterase (che) + cholinesterase / cholinesterase / cholinesterase / …
[24] = group: systemic, systemic / pathology gross / harderian gland / degeneration + systemic / in life observation / body weight / body weight + systemic / in …
[25] = group: systemic, systemic / organ weight / kidney / relative to body weight + systemic / pathology microscopic / heart / lymphoma malignant
[26] = group: systemic, systemic / organ weight / kidney / relative to body weight + systemic / pathology microscopic / heart / lymphoma malignant + systemic / …
[27] = systemic / in life observation / body weight / body weight + systemic / pathology gross / sperm measure / sperm count + systemic / pathology…
[28] = systemic / pathology gross / sperm measure / sperm count + systemic / pathology gross / sperm measure / sperm motility + systemic / …
[29] = systemic / in life observation / body weight / body weight + systemic / pathology microscopic / harderian gland / adenoma + systemic / …
[30] = systemic / in life observation / body weight / body weight
[31] = systemic / in life observation / body weight / body weight + systemic / in life observation / mortality / mortality + systemic / pathology …
[32] = systemic / pathology gross / sperm measure / sperm count + systemic / pathology gross / sperm measure / sperm motility
[33] = systemic / in life observation / body weight / body weight + systemic / in life observation / clinical signs / defecation (diarrhea) + …
[34] = systemic / clinical chemistry / gamma glutamyl transferase (ggt) / gamma glutamyl transferase (ggt)
[35] = group: developmental, developmental / developmental malformation / bone / incomplete ossification + developmental / developmental malformation / bone / misshapen…
[36] = group: maternal, reproductive / reproductive performance / aborted / aborted + systemic / in life observation / food consumption / food consumption + …
[37] = systemic / hematology / hemoglobin (hgb) / hemoglobin (hgb) + systemic / in life observation / body weight / body weight gain + systemic / …
[38] = systemic / urinalysis / appearance and color / appearance and color
[39] = group: offspring, systemic / in life observation / clinical signs / reduced body size
[40] = group: offspring, systemic / in life observation / clinical signs / reduced body size + systemic / in life observation / body weight / offspring (pup) weight
[41] = group: parental, systemic / in life observation / body weight / body weight + systemic / in life observation / body weight / body weight gain + systemic / in…
[42] = group: parental, systemic / in life observation / body weight / body weight + systemic / in life observation / food consumption / food consumption
[43] = group: developmental, developmental / developmental malformation / bone / bent + developmental / developmental malformation / bone / incomplete ossification + …
[44] = group: maternal, reproductive / reproductive performance / resorptions / resorptions + systemic / in life observation / body weight / body weight gain + …

## CN(C)CCCN1c2ccccc2Sc2ccc(Cl)cc21 [Chlorpromazine]
Rat [1]
  LEL: 3 mg/kg/day
  LOAEL: > 9 mg/kg/day
  NEL: 1 mg/kg/day
  NOAEL: ≥ 9 mg/kg/day

## CCOP(=S)(OCC)SCCSCC [Disulfoton]
Rat [2]; [21]
  LEL: 0.3 mg/kg/day
  LOAEL: 0.3 mg/kg/day
  NEL: 0.1 mg/kg/day
  NOAEL: 0.1 mg/kg/day
Rat [2]; [22]
  LEL: 1 mg/kg/day
  LOAEL: 1 mg/kg/day
  NEL: 0.3 mg/kg/day
  NOAEL: 0.3 mg/kg/day
Dog [3]
  LEL: 0.094 mg/kg/day
  LOAEL: 0.094 mg/kg/day
  NEL: 0.013 mg/kg/day
  NOAEL: 0.013 mg/kg/day
Dog [4]
  LEL: 1.5 mg/kg/day
  LOAEL: 1.5 mg/kg/day
  NEL: 0.0375 mg/kg/day
  NOAEL: 0.0375 mg/kg/day
Dog [5]
  LEL: 0.05 mg/kg/day
  LOAEL: 0.05 mg/kg/day
  NEL: 0.025 mg/kg/day
  NOAEL: 0.025 mg/kg/day
Rat [6]; [23]
  LEL: 0.04 mg/kg/day
  LOAEL: 0.04 mg/kg/day
  NEL: < 0.04 mg/kg/day
  NOAEL: < 0.04 mg/kg/day
Rat [6]; group: systemic, systemic / pathology gross / harderian gland / degeneration
  LOAEL: 0.65 mg/kg/day
Rat [6]; [24]
  LEL: 0.65 mg/kg/day
  NEL: 0.165 mg/kg/day
  NOAEL: 0.165 mg/kg/day
Mouse [7]; [23]
  LEL: 2.4 mg/kg/day
  LOAEL: 2.4 mg/kg/day
  NEL: 0.6 mg/kg/day
  NOAEL: 0.6 mg/kg/day
Mouse [7]; [25]
  LEL: 0.15 mg/kg/day
  NEL: < 0.15 mg/kg/day
Mouse [7]; [26]
  LOAEL: > 2.4 mg/kg/day
  NOAEL: ≥ 2.4 mg/kg/day

## OCC1CO1 (stereo not drawn) [Glycidol]
Mouse [8]; [27]
  LEL: 19 mg/kg/day
  NEL: < 19 mg/kg/day
Mouse [8]; [28]
  LOAEL: 75 mg/kg/day
  NOAEL: 38 mg/kg/day
Mouse [9]; [29]
  LEL: 25 mg/kg/day
  NEL: < 25 mg/kg/day
  NOAEL: 25 mg/kg/day
Mouse [9]; systemic / in life observation / body weight / body weight + systemic / pathology microscopic / stomach / hyperplasia
  LOAEL: 50 mg/kg/day
Mouse [10]
  LEL: 200 mg/kg/day
  LOAEL: > 200 mg/kg/day
  NEL: 150 mg/kg/day
  NOAEL: ≥ 200 mg/kg/day
Rat [11]; [30]
  LEL: 150 mg/kg/day
  LOAEL: 150 mg/kg/day
Rat [11]; [31]
  NEL: 75 mg/kg/day
  NOAEL: 75 mg/kg/day
Rat [12]
  LEL: 37.5 mg/kg/day
  LOAEL: 37.5 mg/kg/day
  NEL: < 37.5 mg/kg/day
  NOAEL: < 37.5 mg/kg/day
Rat [13]; systemic / in life observation / body weight / body weight + systemic / pathology microscopic / brain / necrosis + systemic / in life …
  NOAEL: 100 mg/kg/day
Rat [13]; systemic / in life observation / body weight / body weight + systemic / pathology microscopic / brain / necrosis + systemic / pathology …
  LOAEL: 200 mg/kg/day
Rat [13]; [32]
  LEL: 25 mg/kg/day
  NEL: < 25 mg/kg/day
Mouse [14]; systemic / in life observation / body weight / body weight + systemic / in life observation / clinical signs / defecation (diarrhea)
  LEL: 150 mg/kg/day
Mouse [14]; [33]
  LOAEL: > 600 mg/kg/day
  NEL: 75 mg/kg/day
  NOAEL: ≥ 600 mg/kg/day

## CCCN(CCC)c1c([N+](=O)[O-])cc(C(F)(F)F)cc1[N+](=O)[O-] [Trifluralin]
Dog [15]; [34]
  LEL: 0.75 mg/kg/day
  NEL: < 0.75 mg/kg/day
Dog [15]; systemic / clinical chemistry / gamma glutamyl transferase (ggt) / gamma glutamyl transferase (ggt) + systemic / in life observation / body …
  NOAEL: 2.4 mg/kg/day
Dog [15]; systemic / in life observation / body weight / body weight + systemic / in life observation / body weight / body weight gain + systemic / in…
  LOAEL: 40 mg/kg/day
Rat [16]
  LEL: 169 mg/kg/day
  LOAEL: 169 mg/kg/day
  NEL: 40 mg/kg/day
  NOAEL: 40 mg/kg/day
rabbit; [35]
  LEL: 500 mg/kg/day
  LOAEL: 500 mg/kg/day
  NEL: 225 mg/kg/day
  NOAEL: 225 mg/kg/day
rabbit; [36]
  LEL: 225 mg/kg/day
  LOAEL: 225 mg/kg/day
  NEL: 100 mg/kg/day
  NOAEL: 100 mg/kg/day
Dog [17]; systemic / hematology / methemoglobin / methemoglobin + systemic / clinical chemistry / cholesterol / cholesterol + systemic / clinical …
  NEL: 0.8 mg/kg/day
Dog [17]; systemic / organ weight / liver / absolute
  LOAEL: 3.8 mg/kg/day
Dog [17]; systemic / organ weight / liver / absolute + systemic / clinical chemistry / cholesterol / cholesterol + systemic / clinical chemistry / …
  NOAEL: 0.8 mg/kg/day
Dog [17]; systemic / organ weight / liver / absolute + systemic / hematology / methemoglobin / methemoglobin
  LEL: 3.8 mg/kg/day
Rat [18]; [37]
  LOAEL: 392 mg/kg/day
  NOAEL: 154 mg/kg/day
Rat [18]; [38]
  LEL: 59 mg/kg/day
  NEL: < 59 mg/kg/day
Rat [19]; [39]
  LEL: 47 mg/kg/day
  LOAEL: 47 mg/kg/day
Rat [19]; [40]
  NEL: 15 mg/kg/day
  NOAEL: 15 mg/kg/day
Rat [19]; [41]
  NEL: 15 mg/kg/day
  NOAEL: 15 mg/kg/day
Rat [19]; [42]
  LEL: 47 mg/kg/day
  LOAEL: 47 mg/kg/day
Rat [20]; [43]
  LEL: 500 mg/kg/day
  LOAEL: 500 mg/kg/day
  NEL: 100 mg/kg/day
  NOAEL: 100 mg/kg/day
Rat [20]; [44]
  LEL: 500 mg/kg/day
  LOAEL: 500 mg/kg/day
  NEL: 100 mg/kg/day
  NOAEL: 100 mg/kg/day
